# Reference: US9328099B2, “Cyanomethylpyrazole carboxamides as janus kinase inhibitors” (Merck Sharp & Dohme Corp., priority 2011, dated 2016)
# Where two headings read alike, the source gives them in different places.
# Experiments:
# JAK2 = JAK2 (Homo sapiens (Human), UniProt O60674); assay: Jak Biochemical HTRF Assay, JAK2
# From the text: (§1) Jak Biochemical HTRF Assay Protocol
# (§2) Subsequent reagent additions employed an Agilent Bravo.
# JAK1 = JAK1 (Homo sapiens (Human), UniProt P23458); assay: Jak Biochemical HTRF Assay, JAK1; conditions: read-out: JAK1 IC50
# From the text: as §1, §2
# [1] = HTRF biochemical assay, GST-tagged catalytic domain, top concentration tested […]
# Chain of JAK2 (O60674 849-1124): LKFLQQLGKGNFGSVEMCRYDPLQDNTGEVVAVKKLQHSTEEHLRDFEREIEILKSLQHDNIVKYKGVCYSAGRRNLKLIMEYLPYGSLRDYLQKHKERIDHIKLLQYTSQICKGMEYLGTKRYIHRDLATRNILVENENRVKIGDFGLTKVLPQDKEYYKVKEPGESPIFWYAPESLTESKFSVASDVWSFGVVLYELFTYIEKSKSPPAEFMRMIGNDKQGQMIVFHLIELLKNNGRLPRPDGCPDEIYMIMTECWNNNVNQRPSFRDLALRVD
# Chain of JAK1 (P23458 875-1153): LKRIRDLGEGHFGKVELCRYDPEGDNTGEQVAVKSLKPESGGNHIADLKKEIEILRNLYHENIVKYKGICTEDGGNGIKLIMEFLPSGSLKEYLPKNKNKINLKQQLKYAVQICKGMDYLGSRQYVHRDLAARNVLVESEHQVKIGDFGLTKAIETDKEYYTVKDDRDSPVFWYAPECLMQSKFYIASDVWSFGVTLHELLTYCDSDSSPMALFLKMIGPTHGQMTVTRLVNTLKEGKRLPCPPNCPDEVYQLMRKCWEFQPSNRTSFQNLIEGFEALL
Compound,IC50 (JAK2; [1]) [nM],IC50 (JAK1; [1]) [nM],IC50 (JAK2) [nM],IC50 (JAK1) [nM]
"N#CCC1(n2cc(C(N)=O)c(Nc3ccnc(F)c3)n2)CCC(NCc2cccc(F)c2)CC1 (stereo not drawn) [Example 41-24, Cis or trans 1-{1-(cyanomethyl)-4-[(3-fluorobenzyl)amino]cyclohexyl}-3-[(2-fluoropyridin-4-yl)amino]-1H-pyrazole-4-carboxamide]",1030,26,–,–
"N#CCC1(n2cc(C(N)=O)c(Nc3ccnc(F)c3)n2)CCC(NCc2ccc(F)cc2)CC1 (stereo not drawn) [Example 41-25, Cis or trans 1-{1-(cyanomethyl)-4-[(4-fluorobenzyl)amino]cyclohexyl}-3-[(2-fluoropyridin-4-yl)amino]-1H-pyrazole-4-carboxamide]",1080,27,–,–
"N#CCC1(n2cc(C(N)=O)c(Nc3ccnc(F)c3)n2)CCC(NCc2ccc(O)cc2)CC1 (stereo not drawn) [Example 41-26, Cis or trans 1-{1-(cyanomethyl)-4-[(4-hydroxybenzyl)amino]cyclohexyl}-3-[(2-fluoropyridin-4-yl)amino]-1H-pyrazole-4-carboxamide]",759,16,–,–
"N#CCC1(n2cc(C(N)=O)c(Nc3ccnc(F)c3)n2)CCC(NCc2ccccc2C#N)CC1 (stereo not drawn) [Example 41-27, Cis or trans 1-{4-[(2-cyanobenzyl)amino]-1-(cyanomethyl)cyclohexyl}-3-[(2-fluoropyridin-4-yl)amino]-1H-pyrazole-4-carboxamide]",> 1500,307,–,–
"N#CCC1(n2cc(C(N)=O)c(Nc3ccnc(F)c3)n2)CCC(NCc2ccccc2)CC1 (stereo not drawn) [Example 41-28, Cis or trans 1-[4-(benzylamino)-1-(cyanomethyl)cyclohexyl]-3-[(2-fluoropyridin-4-yl)amino]-1H-pyrazole-4-carboxamide]",735,20,–,–
"N#CC[C@]1(n2cc(C(N)=O)c(Nc3ccccc3)n2)CC[C@H](C(=O)NCC(F)(F)F)CC1 [Example 45-2, cis or trans 1-{1-(cyanomethyl)-4-[(2,2,2-trifluoroethyl)carbamoyl]cyclohexyl}-3-(phenylamino)-1H-pyrazole-4-carboxamide]",–,–,1480,378
N#CC[C@@]1(n2cc(C(N)=O)c(Nc3ccnc(F)c3)n2)CCN(C(=O)OCC(F)F)C[C@@H]1F [Example 46],0.1,0.03,–,–
